Laboratory results reported in publication PMC12481569, “Novltex: A New Class of Antibiotics with Potent Activity against Multidrug-Resistant Bacterial Pathogens–Design, Synthesis, and Biological Evaluation” (Journal of Medicinal Chemistry, 2025).
Values after ≈ are worked out from the molar mass of the structure shown. Positions of bridges follow the written chain, without caps; N, C: chain ends. Non-standard residues stand in square brackets, D forms with d. Residues, ends and D or L forms follow the SMILES beside them. dCha = N[C@H](CC1CCCCC1)C(=O)O

Tests used:
[1] = system: human red blood cells (RBCs); assay: Hemolysis assay; assay type: cell-based; settings: 1 h, 37 °C, PBS pH 7.0, absorbance 576 nm, 4 donors in duplicate
Description: 4 Cytotoxicity evaluation of analogue 12. Human primary dermal fibroblasts (A), liver cell line HepG2 (B), and kidney cell line HEK293T (C) cells (5 × 10^3 cells/well in 96-well plates) were treated with increasing concentrations of analogue 12 or 1 μM staurosporine (STS, used as a positive toxicity control) for 24 or 48 h, as indicated. Viability of cells was determined using an MTS-based assay. Results (% cell viability) are the mean ± SD of three independent experiments performed in triplicate. (D) Freshly collected human red blood cells (RBCs) were exposed to increasing concentrations of 12 or Triton X-100 (TX), as indicated, for 1 h. Hemolytic activity (% hemolysis) was determined by spectrophotometrically measuring the release of hemoglobin compared to that with TX (used as a positive control). […]
day, cells were treated in triplicates with increasing concentrations of Novltex analogue 12, as indicated in the corresponding figure and the figure legend (Figure 4A-C). […] Cell viability assessed after 24 h or 48 h incubation using an MTS-based CellTiter 96® AQueous One Solution Cell Proliferation Assay (Promega #G3582, Southampton UK) as per manufacturer’s instructions. Absorbance was recorded at 490 nm. Relative cell viability was determined by subtracting the blank (cell culture medium and MTS only) from individual values before normalizing against the untreated control. […]

[2] = system: Multidrug-Resistant (MDR) E. faecium; assay: microbe, parasite or virus in culture
Description: (§1) We further evaluated analogue 12 against multidrug-resistant (MDR) strains of S. aureus (acquired from the NARSA collection) and MDR E. faecium (acquired from International Health Management Associates, IHMA, Europe Sarl), comparing its activity to various classes of clinically used antibiotics (Table ).
(§2) MICs were performed as previously reported 4. For MIC testing all peptides were dissolved in DMSO.
(§3) Bacterial cultures were grown overnight on Mueller-Hinton Agar (MHA) plates and adjusted to a final inoculum of 10^5 – 10^6 CFU/mL. 100 µl of ino culum in Meuller -Hinton broth (MHB) was mixed with equal volume of peptides (dissolved in MHB) at 2x their concentration in a 96 well plate . For daptomycin MIC determination, the same protocol was followed with the addition of 50 mg/L calcium chloride to the medium. MIC values were determined in the media contain ing polysorbate 80 (0.002%, v/v) to prevent non -specific adsorption of the peptides to plastic surfaces. The final peptides concentrations ranged from 0.0625 – 32 µg/mL. The 96 well plates were then incubated at 37 °C for 24 h. All the experiments were performed in two independent duplicates and the MIC was determined as the lowest concentration in which no visible growth was observed.
(§4) Antibiotics MIC break points ( µg/mL)
(§5) Table. S4: Susceptibility cut-off values (MIC breakpoints) for various clinical antibiotics. […]

[3] = system: Multidrug-Resistant (MDR) S. aureus; assay: microbe, parasite or virus in culture; settings: MHB, 0.002% polysorbate 80, 37 °C, 24 h, daptomycin with 50 mg/L calcium chloride
Description: as §1, §2, §3, §4, §5

CC(C)C[C@@H]1NC(=O)[C@H](C)NC(=O)[C@H](NC(=O)[C@H](CO)NC(=O)[C@@H](CCCCN)NC(=O)[C@@H](CC2CCCCC2)NC(=O)[C@@H](N)Cc2ccccc2)[C@H](C)OC(=O)[C@H](CC(C)C)NC1=O [analogue 12, Leu2Cha–Novltex] (H-F[dCha][dK]S[dT]ALL; ester 5-C)
hemolysis of human erythrocytes ([1]; 62.5 μg/mL (125× MIC)): low hemolysis | hemolysis of human erythrocytes ([1]; concentrations up to 31.2 μg/mL): no detectable hemolysis | MIC, Enterococcus faecium 1563254 ([2]; MDR clinical isolate 1563254, MHB, 0.002% polysorbate 80, 37 °C, 24 h, daptomycin with 50 mg/L calcium chloride): 0.25 µg/mL (≈ 0.273 µM) | MIC, Enterococcus faecium 1581582 ([2]; MDR clinical isolate 1581582, MHB, 0.002% polysorbate 80, 37 °C, 24 h, daptomycin with 50 mg/L calcium chloride): 0.5 µg/mL (≈ 0.547 µM) | MIC, Enterococcus faecium 1766686 ([2]; MDR clinical isolate 1766686, MHB, 0.002% polysorbate 80, 37 °C, 24 h, daptomycin with 50 mg/L calcium chloride): 0.125 µg/mL (≈ 0.137 µM) | MIC range against MDR E. faecium strains ([2]; range over the three clinical isolates): 0.125 to 0.5 µg/mL | MIC, Staphylococcus aureus NR 45914 ([3]; MDR strain NR 45914): 0.125 µg/mL (≈ 0.137 µM) | MIC, Staphylococcus aureus NR 45926 ([3]; MDR strain NR 45926): 0.125 µg/mL (≈ 0.137 µM) | MIC, Staphylococcus aureus NR 45930 ([3]; MDR strain NR 45930): 0.125 µg/mL (≈ 0.137 µM) | MIC, Staphylococcus aureus NR 46062 ([3]; MDR strain NR 46062): 0.063 µg/mL (≈ 0.0689 µM)
